Measured values from patent US20050020643A1, “Pyridinyl amides and compositions thereof for use as fungicides” (priority 2002, published 2005).
Where two headings read alike, the source gives them in different places. Marks after values point to notes of the source that are not given here.

What was measured:
Assay type in all cases: in vivo
Phytophthora infestans [1] = tested on: Phytophthora infestans
Plasmopara viticola [2] = test: Test E: preventive control of grape downy mildew on grape seedlings
Plasmopara viticola [3] = test: Test G: curative control of grape downy mildew on grape seedlings (sprayed after inoculation); settings: sprayed day after inoculation
[4] = tested on: Erysiphe graminis f. sp. tritici; test: Test A: preventive control of wheat powdery mildew on wheat seedlings; set-up: concentration or dose not given beside the values; settings: sprayed day before inoculation, rated after 7 days, rate not given
Phytophthora infestans [5] = test: whole plant or invertebrate; settings: for Test F disease control rating: 100 g/ha on potato seedlings, sprayed day after inoculation; for pest or weed control at 100 g/ha: Phytophthora infestans, in Solanum tuberosum, 120 h, read-out: Test F disease control rating
[6] = tomato (or potato) seedlings, sprayed day before inoculation, rate not given
[7] = sprayed day before inoculation, rate not given

O=C(NCc1ncc(Br)cc1Br)c1c(Cl)ccnc1Cl [Compound 17]
Test D disease control rating (Phytophthora infestans [1]; [6]): 100% | Test E disease control rating (Plasmopara viticola [2]; [7]): 99% | Test G disease control rating (Plasmopara viticola [3]; rate not given): 98% | Test A disease control rating [4]: 0% | Test F disease control rating (Phytophthora infestans [5]): 73%

Cc1cc(Cl)c(C(=O)NCc2ncc(Br)cc2Br)c(Cl)n1 [Compound 18]
Test D disease control rating (Phytophthora infestans [1]; [6]): 100% | Test E disease control rating (Plasmopara viticola [2]; [7]): 100% | Test G disease control rating (Plasmopara viticola [3]; rate not given): 100% | Test A disease control rating [4]: 0% | Test F disease control rating (Phytophthora infestans [5]): 77%

Cc1cc(Cl)c(C(=O)NCc2ncc(Cl)cc2Cl)c(Cl)n1 [Compound 19, 2,4-Dichloro-N-[(3,5-dichloro-2-pyridinyl)methyl]-6-methyl-3-pyridinecarboxamide]
Test D disease control rating (Phytophthora infestans [1]; [6]): 99% | Test E disease control rating (Plasmopara viticola [2]; [7]): 100% | Test G disease control rating (Plasmopara viticola [3]; rate not given): 100% | Test A disease control rating [4]: 0% | pest or weed control at 100 g/ha (Phytophthora infestans [5]): 0%

Cc1cc(Cl)c(C(=O)NC(C)c2ncc(Cl)cc2Cl)c(Cl)n1 (stereo not shown) [Compound 20, 2,4-Dichloro-N-[1-(3,5-dichloro-2-pyridinyl)ethyl]-6-methyl-3-pyridinecarboxamide]
Test D disease control rating (Phytophthora infestans [1]; [6]): 100% | Test E disease control rating (Plasmopara viticola [2]; [7]): 100% | Test G disease control rating (Plasmopara viticola [3]; rate not given): 100% | Test A disease control rating [4]: 0% | pest or weed control at 100 g/ha (Phytophthora infestans [5]): 53%

COc1cnc(C(C)NC(=O)c2c(Cl)cc(C)nc2Cl)c(Cl)c1 (stereo not shown) [Compound 21]
Test D disease control rating (Phytophthora infestans [1]; [6]): 99% | Test E disease control rating (Plasmopara viticola [2]; [7]): 100% | Test G disease control rating (Plasmopara viticola [3]; rate not given): 77% | Test A disease control rating [4]: 0% | Test F disease control rating (Phytophthora infestans [5]): 53%

COc1cnc(C(C)NC(=O)c2c(Cl)ccnc2Cl)c(Cl)c1 (stereo not shown) [Compound 22]
Test D disease control rating (Phytophthora infestans [1]; [6]): 100% | Test E disease control rating (Plasmopara viticola [2]; [7]): 100% | Test G disease control rating (Plasmopara viticola [3]; rate not given): 94% | Test A disease control rating [4]: 0% | Test F disease control rating (Phytophthora infestans [5]): 98%

CC(NC(=O)c1c(Cl)ccnc1Cl)c1ncc(Br)cc1I (stereo not shown) [Compound 23]
Test D disease control rating (Phytophthora infestans [1]; [6]): 100% | Test E disease control rating (Plasmopara viticola [2]; [7]): 100% | Test G disease control rating (Plasmopara viticola [3]; rate not given): 96% | Test A disease control rating [4]: 0% | Test F disease control rating (Phytophthora infestans [5]): 98%

O=C(NCc1ncc(Br)cc1Cl)c1c(I)ccnc1Cl [Compound 24]
Test D disease control rating (Phytophthora infestans [1]; [6]): 100% | Test E disease control rating (Plasmopara viticola [2]; [7]): 100% | Test G disease control rating (Plasmopara viticola [3]; rate not given): 84% | Test A disease control rating [4]: 0% | Test F disease control rating (Phytophthora infestans [5]): 0%

CC(NC(=O)c1c(I)ccnc1Cl)c1ncc(Br)cc1Cl (stereo not shown) [Compound 25]
Test D disease control rating (Phytophthora infestans [1]; [6]): 100% | Test E disease control rating (Plasmopara viticola [2]; [7]): 100% | Test G disease control rating (Plasmopara viticola [3]; rate not given): 72% | Test A disease control rating [4]: 0% | Test F disease control rating (Phytophthora infestans [5]): 0%

O=C(NCc1ncc(Cl)cc1Cl)c1c(I)ccnc1Cl [Compound 26]
Test D disease control rating (Phytophthora infestans [1]; [6]): 100% | Test E disease control rating (Plasmopara viticola [2]; [7]): 81% | Test G disease control rating (Plasmopara viticola [3]; rate not given): 99% | Test A disease control rating [4]: 0% | Test F disease control rating (Phytophthora infestans [5]): 0%

CC(NC(=O)c1c(I)ccnc1Cl)c1ncc(Cl)cc1Cl (stereo not shown) [Compound 27]
Test D disease control rating (Phytophthora infestans [1]; [6]): 100% | Test E disease control rating (Plasmopara viticola [2]; [7]): 100% | Test G disease control rating (Plasmopara viticola [3]; rate not given): 100% | Test A disease control rating [4]: 0% | Test F disease control rating (Phytophthora infestans [5]): 0%

CC(NC(=O)c1c(Br)ccnc1Cl)c1ncc(Br)cc1Cl (stereo not shown) [Compound 28]
Test D disease control rating (Phytophthora infestans [1]; [6]): 99% | Test E disease control rating (Plasmopara viticola [2]; [7]): 100% | Test G disease control rating (Plasmopara viticola [3]; rate not given): 100% | Test A disease control rating [4]: 0% | Test F disease control rating (Phytophthora infestans [5]): 100%

Cc1ccnc(Br)c1C(=O)NC(C)c1ncc(Br)cc1Cl (stereo not shown) [Compound 29]
Test D disease control rating (Phytophthora infestans [1]; [6]): 99% | Test E disease control rating (Plasmopara viticola [2]; [7]): 100% | Test G disease control rating (Plasmopara viticola [3]; rate not given): 94% | Test A disease control rating [4]: 0% | Test F disease control rating (Phytophthora infestans [5]): 57%

CC(NC(=O)c1c(I)ccnc1Cl)c1ncc(Br)cc1Br (stereo not shown) [Compound 30]
Test D disease control rating (Phytophthora infestans [1]; [6]): 100% | Test E disease control rating (Plasmopara viticola [2]; [7]): 100% | Test G disease control rating (Plasmopara viticola [3]; rate not given): 93% | Test A disease control rating [4]: 0% | Test F disease control rating (Phytophthora infestans [5]): 44%

CC(NC(=O)c1c(I)ccnc1F)c1ncc(Br)cc1Br (stereo not shown) [Compound 31]
Test D disease control rating (Phytophthora infestans [1]; [6]): 100% | Test E disease control rating (Plasmopara viticola [2]; [7]): 100% | Test G disease control rating (Plasmopara viticola [3]; rate not given): 100% | Test A disease control rating [4]: 0% | Test F disease control rating (Phytophthora infestans [5]): 79%

Cc1cc(Cl)c(C(=O)NC(C)c2ncc(Br)cc2Br)c(Cl)n1 (stereo not shown) [Compound 32]
Test D disease control rating (Phytophthora infestans [1]; [6]): 100% | Test E disease control rating (Plasmopara viticola [2]; [7]): 100% | Test G disease control rating (Plasmopara viticola [3]; rate not given): 99% | Test A disease control rating [4]: 0% | Test F disease control rating (Phytophthora infestans [5]): 82%

CC(NC(=O)c1c(I)ccnc1F)c1ncc(Br)cc1Cl (stereo not shown) [Compound 33]
Test D disease control rating (Phytophthora infestans [1]; [6]): 100% | Test E disease control rating (Plasmopara viticola [2]; [7]): 100% | Test G disease control rating (Plasmopara viticola [3]; rate not given): 100% | Test A disease control rating [4]: 0% | Test F disease control rating (Phytophthora infestans [5]): 100%

CC(NC(=O)c1c(Cl)ccnc1Cl)c1ncc(Cl)cc1Br (stereo not shown) [Compound 34]
Test D disease control rating (Phytophthora infestans [1]; [6]): 100% | Test E disease control rating (Plasmopara viticola [2]; [7]): 100% | Test G disease control rating (Plasmopara viticola [3]; rate not given): 100% | Test A disease control rating [4]: 0% | Test F disease control rating (Phytophthora infestans [5]): 99%

O=C(NCc1ncc(I)cc1Br)c1c(Cl)ccnc1Cl [Compound 35]
Test D disease control rating (Phytophthora infestans [1]; 100 g/ha on potato seedlings): 100# % | Test E disease control rating (Plasmopara viticola [2]; rate 100 g/ha (footnote *)): 99* % | Test G disease control rating (Plasmopara viticola [3]; rate 100 g/ha (footnote *)): 50* % | Test A disease control rating [4]: 0% | Test F disease control rating (Phytophthora infestans [5]): 96%

CC(NC(=O)c1c(Cl)ccnc1Cl)c1ncc(I)cc1Br (stereo not shown) [Compound 36]
Test D disease control rating (Phytophthora infestans [1]; 100 g/ha on potato seedlings): 100# % | Test E disease control rating (Plasmopara viticola [2]; rate 100 g/ha (footnote *)): 100* % | Test G disease control rating (Plasmopara viticola [3]; rate 100 g/ha (footnote *)): 92* % | Test A disease control rating [4]: 0% | Test F disease control rating (Phytophthora infestans [5]): 92%

CC(NC(=O)c1c(Br)ccnc1F)c1ncc(Br)cc1Cl (stereo not shown) [Compound 37]
Test D disease control rating (Phytophthora infestans [1]; [6]): 100% | Test E disease control rating (Plasmopara viticola [2]; [7]): 100% | Test G disease control rating (Plasmopara viticola [3]; rate not given): 100% | Test A disease control rating [4]: 0% | Test F disease control rating (Phytophthora infestans [5]): 100%

CC(NC(=O)c1c(Br)ccnc1F)c1ncc(Cl)cc1Cl (stereo not shown) [Compound 38]
Test D disease control rating (Phytophthora infestans [1]; [6]): 100% | Test E disease control rating (Plasmopara viticola [2]; [7]): 100% | Test G disease control rating (Plasmopara viticola [3]; rate not given): 100% | Test A disease control rating [4]: 0% | Test F disease control rating (Phytophthora infestans [5]): 100%

CC(NC(=O)c1c(Br)ccnc1F)c1ncc(Br)cc1Br (stereo not shown) [Compound 39]
Test D disease control rating (Phytophthora infestans [1]; [6]): 100% | Test E disease control rating (Plasmopara viticola [2]; [7]): 100% | Test G disease control rating (Plasmopara viticola [3]; rate not given): 100% | Test A disease control rating [4]: 0% | Test F disease control rating (Phytophthora infestans [5]): 100%

Cc1cc(Cl)c(C(=O)NCc2ncc(Cl)cc2Br)c(Cl)n1 [Compound 40]
Test D disease control rating (Phytophthora infestans [1]; [6]): 100% | Test E disease control rating (Plasmopara viticola [2]; [7]): 100% | Test G disease control rating (Plasmopara viticola [3]; rate not given): 99% | Test A disease control rating [4]: 0% | Test F disease control rating (Phytophthora infestans [5]): 95%

Cc1cc(Cl)c(C(=O)NC(C)c2ncc(Cl)cc2Br)c(Cl)n1 (stereo not shown) [Compound 41]
Test D disease control rating (Phytophthora infestans [1]; [6]): 100% | Test E disease control rating (Plasmopara viticola [2]; [7]): 100% | Test G disease control rating (Plasmopara viticola [3]; rate not given): 100% | Test A disease control rating [4]: 0% | Test F disease control rating (Phytophthora infestans [5]): 97%

Cc1cc(Cl)c(C(=O)NCc2ncc(I)cc2Br)c(Cl)n1 [Compound 42]
Test D disease control rating (Phytophthora infestans [1]; [6]): 100% | Test E disease control rating (Plasmopara viticola [2]; [7]): 100% | Test G disease control rating (Plasmopara viticola [3]; rate not given): 100% | Test A disease control rating [4]: 0% | Test F disease control rating (Phytophthora infestans [5]): 93%
